Assay results published in US9643964B2, “3-(2-aminopyrimidin-4-yl)-5-(3-hydroxypropynyl)-1H-pyrrolo[2,3-C]pyridine derivatives as NIK inhibitors for the treatment of cancer” (Janssen Pharmaceutica NV, priority 2013, dated 2017).

Columns and labels:
[1] = target: T1, Recombinant Human NF-kappaB-Inducing Kinase (NIK/MAP3K14) (Homo sapiens, UniProt Q99558); assay: Biological Assay A2: inhibition of auto-phosphorylation of recombinant human NIK/MAP3K14 (AlphaScreen); format: biochemical; conditions: auto-phosphorylation; averaged over all measurements on all batches; read-out: αscreen IC50
How it was run: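 GST-tagged NIK/MAP3K14 (0.2 nM) auto-phosphorylation with 25 microM ATP in 50 mM Tris pH 7.5, 5 mM MgCl2, 1% DMSO; 1 h at 25° C. Phospho-IKK Ser176/180 detected by AlphaScreen; blank-subtracted % inhibition fitted sigmoidally vs log concentration for IC50.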

[2] = system: LP-1 cells; assay: Biological Assay C: antiproliferative activity on LP-1 cells (CellTiter-Glo); format: cell-based, human; conditions: Homo sapiens, LP-1, 72 h, 72 hr treatment; averaged values
How it was run: (§1)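 CellTiter-Glo luminescence after 72 h exposure, blank (cells read at compound addition) subtracted, growth expressed as % of untreated control; duplicate wells. Suspension cells in RPMI/10% FCS, 2,000–6,000 cells/well, 0.3% DMSO.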

[3] = system: JJN-3 cells; assay: Biological Assay C: antiproliferative activity on JJN-3 cells (CellTiter-Glo); format: cell-based, human; conditions: Homo sapiens, JJN-3, 72 h, 72 hr treatment; averaged values
How it was run: as §1

[4] = system: P-IKKα levels in L363 cells; assay: Biological Assay B: effect of compounds on P-IKKα levels in L363 cells; format: cell-based; conditions: Homo sapiens, L-363, averaged values, read-out: IKKα Cellular IC50
Protocol: Effect of Compounds on P-IKKα Levels in L363 Cells
All compounds tested were dissolved in DMSO and further dilutions were made in culture medium. Final DMSO concentration was 1% (v/v) in cell assays. The human L363 cells (ATCC) were cultured in RPMI 1640 medium supplemented with GlutaMax and 10% fetal calf serum (PAA). Cells were routinely maintained at densities of 0.2×10^6 cells per ml-1×10^6 cells per ml at 37° C. in a humidified 5% CO2 atmosphere. Cells were passaged twice a week splitting back to obtain the low density. Cells were seeded in 96 well plates (Nunc 167008) at 2×10^6 per ml media in a volume of 75 μl per well plus 25 μl 1 μg/ml recombinant human B-cell activating factor BAFF/B1YS/TNFSF13B. Seeded cells were incubated at 37° C. in a humidified 5% CO2 atmosphere for 24 hr. Drugs and/or solvents were added (20 μl) to a final volume of 120 μl. Following 2 hr treatment plates were removed from the incubator and cell lysis was achieved by the addition of 30 μl 5× lysis buffer followed by shaking on a plate shaker at 4° C. for 10 min. At the end of this incubation lysed cells were centrifuged at 800×g for 20 min at 4° C. and the lysate was assessed for P-IKKα levels by sandwich immuno-assay carried out in anti-rabbit antibody coated Mesoscale plates. Within an experiment, the results for each treatment were the mean of 2 replicate wells. For initial screening purposes, compounds were tested using an 8 point dilution curve (serial 1:3 dilutions). For each experiment, controls (containing MG132 and BAFF but no test drug) and a blank incubation (containing MG132 and BAFF and 10 μM ADS125117, a test concentration known to give full inhibition) were run in parallel. The blank incubation value was subtracted from all control and sample values. To determine the IC50 a sigmoidal curve was fitted to the plot of % inhibition of control P-IKKα levels versus Log10 compound concentration.

[5] = system: L-363 cells; assay: Biological Assay C: antiproliferative activity on L-363 cells (CellTiter-Glo); format: cell-based, human; conditions: Homo sapiens, L-363, 72 h, 72 hr treatment; averaged values
How it was run: as §1

[6] = target: T1, Recombinant Human NF-kappaB-Inducing Kinase (NIK/MAP3K14); assay: Biological Assay A: inhibition of recombinant human NIK/MAP3K14 activity (MBP phosphorylation, Mesoscale); format: biochemical; conditions: averaged over all measurements on all batches; read-out: Biochemical (MSD MBP) IC50
Protocol: Inhibition of Recombinant Human NF-kappaB-Inducing Kinase (NIK/MAP3K14) Activity
Assay buffer was 50 mM Tris pH 7.5 containing 1 mM EGTA (ethylene glycol tetraacetic acid), 1 mM DTT (dithiothreitol), 0.1 mM Na3VO4, 5 mM MgCl2, 0.01% Tween 20. Assays were carried out in 384 well Mesoscale high binding plates which had been coated with myelin basic protein (MBP) and blocked with bovine serum albumin to prevent non-specific protein binding. All compounds tested were dissolved in dimethyl sulfoxide (DMSO) and further dilutions were made in assay buffer. Final DMSO concentration was 1% (v/v) in assays. Incubations consisted of compound (1% DMSO in control and blank wells), 25 μM Adenosine-5′-triphosphate (ATP), and 10 nM NIK/MAP3K14 substituting enzyme with buffer in the blank wells. Incubations were carried out for 1 h at 25° C. and were followed by washing and sequential incubation with rabbit anti-phospho-MBP and anti-rabbit Ig Sulfotag antibody before reading bound Sulfotag on a Mesoscale Discovery. Signal obtained in the wells containing blank samples was subtracted from all other wells and IC50's were determined by fitting a sigmoidal curve to % inhibition of control versus Log10 compound concentration.

T1 sequence (Q99558 whole entry): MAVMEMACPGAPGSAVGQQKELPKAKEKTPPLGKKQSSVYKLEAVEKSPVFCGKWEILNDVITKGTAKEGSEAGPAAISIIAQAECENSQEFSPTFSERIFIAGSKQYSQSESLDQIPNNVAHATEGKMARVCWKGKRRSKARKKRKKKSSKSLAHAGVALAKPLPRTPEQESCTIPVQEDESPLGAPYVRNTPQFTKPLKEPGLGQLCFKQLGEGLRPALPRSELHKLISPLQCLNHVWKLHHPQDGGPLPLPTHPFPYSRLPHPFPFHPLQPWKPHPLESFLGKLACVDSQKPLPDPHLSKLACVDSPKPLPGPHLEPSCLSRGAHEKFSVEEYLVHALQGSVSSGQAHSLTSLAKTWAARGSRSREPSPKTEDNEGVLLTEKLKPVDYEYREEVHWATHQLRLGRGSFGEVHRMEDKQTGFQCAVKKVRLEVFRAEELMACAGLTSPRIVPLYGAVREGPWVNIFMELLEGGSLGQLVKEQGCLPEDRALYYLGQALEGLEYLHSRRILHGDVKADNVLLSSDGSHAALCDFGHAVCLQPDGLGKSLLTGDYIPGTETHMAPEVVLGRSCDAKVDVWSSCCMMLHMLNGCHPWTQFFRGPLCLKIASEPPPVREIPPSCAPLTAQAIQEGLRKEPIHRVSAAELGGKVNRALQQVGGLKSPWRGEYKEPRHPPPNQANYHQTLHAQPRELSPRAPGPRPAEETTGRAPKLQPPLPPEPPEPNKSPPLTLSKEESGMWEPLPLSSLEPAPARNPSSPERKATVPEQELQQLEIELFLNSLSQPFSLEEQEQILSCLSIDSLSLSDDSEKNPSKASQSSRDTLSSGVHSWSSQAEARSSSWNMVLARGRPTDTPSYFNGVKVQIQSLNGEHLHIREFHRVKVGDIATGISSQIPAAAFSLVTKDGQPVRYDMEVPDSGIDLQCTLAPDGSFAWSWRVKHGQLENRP

SMILES	IC50 [1]	EC50 [2]	EC50 [3]	IC50 [4]	EC50 [5]	IC50 [6]
CC(C)(O)C#Cc1cc2c(-c3nc(N)ncc3F)c[nH]c2cn1 [Compound 45]	2 nM	590 nM	22 nM	12 nM	90 nM	3.9 nM
CC(C)n1cc(-c2nc(N)ncc2CCCN)c2cc(C#CC(C)(C)O)ncc21 [Compound 118]	740 nM	3800 nM	330 nM	1700 nM	1600 nM	240 nM
CC(C)(O)Cn1cc(-c2ccnc(N)n2)c2cc(C#CC(C)(O)c3nccs3)ncc21 (stereo not drawn) [Compound 27]	70 nM	> 10000 nM	9700 nM	360 nM	> 10000 nM	25 nM
CC(O)C#Cc1cc2c(-c3ccnc(N)n3)cn(C(C)C)c2cn1 (stereo not drawn) [Compound 10]	29 nM	230 nM	80 nM	100 nM	46 nM	9.2 nM
CC(C)(O)C#Cc1cc2c(-c3ccnc(N)n3)cn(CC3CCNCC3)c2cn1 [Compound 114]	190 nM	5500 nM	1600 nM	3800 nM	1500 nM	160 nM
CNC(=O)CCn1cc(-c2ccnc(N)n2)c2cc(C#CC(C)(C)O)ncc21 [Compound 49]	360 nM	> 10000 nM	32000 nM	5900 nM	> 10000 nM	150 nM
CC(C)(O)C#Cc1cc2c(-c3ccnc(N)n3)cn(CC3CCOC3)c2cn1 (stereo not drawn) [Compound 6]	11 nM	3000 nM	860 nM	68 nM	790 nM	2.3 nM
CCNc1nccc(-c2c[nH]c3cnc(C#CC(C)(C)O)cc23)n1 [Compound 48]	16 nM	3900 nM	380 nM	260 nM	650 nM	65 nM
CC(C)(O)C#Cc1cc2c(-c3ccnc(N)n3)cn(CCC(C)(C)O)c2cn1 [Compound 51]	23 nM	> 10000 nM	990 nM	83 nM	2400 nM	48 nM
CC(C)(O)Cn1cc(-c2nc(N)ncc2Cl)c2cc(C#CC3(O)CCCC3)ncc21 [Compound 33]	16 nM	4100 nM	150 nM	53 nM	1100 nM	4.2 nM
CC(C)n1cc(-c2nc(N)ncc2Cl)c2cc(C#CC3(O)CCCC3)ncc21 [Compound 19]	16 nM	1200 nM	160 nM	18 nM	430 nM	5.3 nM
Cc1c(-c2ccnc(N)n2)c2cc(C#CC(C)(C)O)ncc2n1CC(C)(C)O [Compound 46]	55 nM	> 10000 nM	1100 nM	180 nM	3600 nM	60 nM
CC(C)(O)Cn1cc(-c2ccnc(N)n2)c2cc(C#CC(C)(O)c3ccccn3)ncc21 (stereo not drawn) [Compound 59]	230 nM	> 10000 nM	17000 nM	5000 nM	> 10000 nM	71 nM
CC(C)(O)Cn1cc(-c2ccnc(N)n2)c2cc(C#CC3(O)CC3)ncc21 [Compound 22]	9 nM	1600 nM	280 nM	75 nM	190 nM	20 nM
CC(C)(O)C#Cc1cc2c(-c3ccnc(N)n3)cn(CCN3CCOCC3)c2cn1 [Compound 7]	210 nM	3200 nM	1900 nM	540 nM	1900 nM	15 nM
CC(C)(O)C#Cc1cc2c(-c3ccnc(N)n3)cn(CCN3CC(=O)NC3=O)c2cn1 [Compound 116]	170 nM	> 10000 nM	5600 nM	5300 nM	11000 nM	120 nM
CC(C)(O)C#Cc1cc2c(-c3nc(N)ncc3C#N)cn(CC(C)(C)O)c2cn1 [Compound 60]	11 nM	14000 nM	170 nM	19 nM	150 nM	8.4 nM
COCCNC(=O)c1c(-c2ccnc(N)n2)c2cc(C#CC(C)(C)O)ncc2n1C [Compound 69]	89 nM	16000 nM	1800 nM	600 nM	870 nM	250 nM
CC(C)C(C)(O)C#Cc1cc2c(-c3ccnc(N)n3)cn(CC(C)(C)O)c2cn1 (stereo not drawn) [Compound 40]	110 nM	25000 nM	2300 nM	530 nM	4500 nM	43 nM
CC(C)(O)C#Cc1cc2c(-c3nc(N)ncc3Cl)c[nH]c2cn1 [Compound 14]	0.4 nM	390 nM	75 nM	11 nM	75 nM	0.9 nM
Cc1cnc(N)nc1-c1c[nH]c2cnc(C#CC(C)(C)O)cc12 [Compound 112]	17 nM	14000 nM	440 nM	140 nM	1300 nM	6.3 nM
